Results reported in patent US12427212B2, “Nectin-4 binding miniproteins, conjugates and uses thereof” (Aktis Oncology, Inc., priority 2023, dated 2025).
Bridges are numbered along the chain shown (N, C = ends). [ ]: non-standard residue; d: D form. The star is where a group is joined. DOTA = O=C(O)CN1CCN(CC(=O)O)CCN(CC(=O)*)CCN(CC(=O)O)CC1; Arg(Me2s) = CN=C(NC)NCCC[C@H](N)C(=O)O; PEG4 = NCCOCCOCCOCCOCCC(=O)O

Key:
[1] = In vivo biodistribution of 111In-labeled miniproteins by SPECT/CT, HT-1376 xenograft; parameters: species or system mouse; conditions: female, athymic nude, mouse, in vivo
Source text: HT-1376 is a human cell line that expresses Nectin-4.
Humane endpoints: All animals were euthanized following the final imaging time point and carcasses were discarded according to IACUC protocols.
Image Processing: Images were generated as SPECT/CT pairs with the SPECT reported in units of activity.
Image generation: After the preprocessing described in A, individual maximum intensity projections (MIPs) were created with VivoQuant software for each subject at each time point and scaled in percent injected dose per gram (% ID/g). The CT for each image was windowed from −500 to 4500 Hounsfield Units (HU). The SPECT was windowed at various ranges to highlight different regions of uptake. Images were then stitched together using Image Magick based python tools to create montages of subjects over time and time points over groups.

Nectin-4 = target: T1, Nectin-4 (Homo sapiens, UniProt Q96NY8); experiment: DELFIA whole cell binding assay, equilibrium binding affinity (KD), Table 2B; conditions: Table 2B, binding to Nectin-4; read-out: Binding Affinity (KD)
T1 sequence (Q96NY8 32-510): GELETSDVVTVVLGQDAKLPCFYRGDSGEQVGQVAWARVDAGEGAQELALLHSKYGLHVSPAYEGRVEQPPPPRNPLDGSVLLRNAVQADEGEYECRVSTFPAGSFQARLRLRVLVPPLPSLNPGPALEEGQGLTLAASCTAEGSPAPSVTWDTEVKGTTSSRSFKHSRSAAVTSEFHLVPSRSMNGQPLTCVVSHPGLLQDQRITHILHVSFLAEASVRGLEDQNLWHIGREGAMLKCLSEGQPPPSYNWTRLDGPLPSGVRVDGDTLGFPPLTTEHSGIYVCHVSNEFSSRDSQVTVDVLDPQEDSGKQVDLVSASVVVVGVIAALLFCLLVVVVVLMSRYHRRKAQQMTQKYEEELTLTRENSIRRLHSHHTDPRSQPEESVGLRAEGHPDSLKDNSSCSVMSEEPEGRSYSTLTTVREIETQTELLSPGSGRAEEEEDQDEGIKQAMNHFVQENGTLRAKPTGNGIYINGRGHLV
Procedure: A whole cell binding assay was used to estimate the equilibrium binding affinity (KD) or binding inhibition constant (Ki) of miniprotein ligands to cells expressing a target of interest. Cells were dispensed into a 384-well plate and incubated at 37° C., in 5% CO2 overnight. The next day cells were gently washed once in assay buffer prior to addition of europium chelated ligand. For KD determination, a miniprotein conjugated with europium chelate (DOTA or DTPA) in the presence or absence of 100-fold excess un-conjugated ligand was incubated with cells over 12 different concentrations ranging from 100 times below and above expected KD values. For Ki determination, a single concentration (KD equivalent concentration) of europium-chelate miniprotein was added to each well followed immediately by the addition of unconjugated competing ligand over 12 different concentrations ranging from 100 times below and above expected Ki values as before. The plate was incubated for 1.5 h at room temperature to reach binding equilibrium. Cells were then washed three times at room temperature with 1×PBS followed by the addition of 2 M HCl and incubated for two h at 37° C. Following this step, 2 M NaOH and fluorescent inducer solution were added to each well and incubated for 30 minutes at room temperature according to the manufacturer's protocol (Perkin-ELMER DELFIA assay). Plates were read on an Envision plate reader and a curve-fitting model was applied to estimate KD and Ki values using GraphPad Prism software. Mean DELFIA K; values for exemplary miniproteins are recorded in TABLE 9A.

[2] = In vitro metabolic stability in serum/plasma (percent parent remaining, LC-MS); assay type: in vitro ADME; conditions: mouse
Procedure: Exemplary miniproteins were spiked into biological matrices at initial concentration between 1-2 μM. Tested matrices were varied by species (mouse, rat, human) and type (plasma, serum, and kidney brush border membrane (kBBM) preparations tested each from 0.625-100 μg/mL protein content). Tested conditions were incubated with miniproteins at 37° C. for 4 h. At collection points of 0, 15, 30, 60, 120, 240 minutes, 50 μL of each condition were quenched by organic solvent (methanol or acetonitrile) or the addition of 4% phosphoric acid solution followed by solid-phase extraction. Fractions of each quenched timepoint were subsequently assayed for parent miniproteins concentration by high resolution LC-MS. Percent-parent-remaining-time plots were constructed from the ratio of each given time collection to the time-zero parent miniprotein. Percent-parent-remaining in mouse serum and plasma for exemplary miniproteins are recorded in TABLE 11.

Molecule	tissue uptake at 4 h [1] [%ID/g]	tissue uptake at 24 h [1] [%ID/g]	Kd (Nectin-4) [nM]	half-life [2] [min]	half-life ([2]; plasma) [min]
CC[C@H](C)[C@@H]1NC(=O)CNC(=O)[C@@H]2CCCN2C(=O)[C@H](CC(C)C)NC(=O)[C@H](Cc2ccc(O)cc2)NC(=O)[C@H](CC(N)=O)NC(=O)[C@H](Cc2ccccc2)NC(=O)[C@H](C)NC(=O)[C@H](CCC(N)=O)NC(=O)[C@H](CCC(N)=O)NC(=O)[C@H]([C@@H](C)CC)NC(=O)[C@H](Cc2ccc(O)cc2)NC(=O)[C@H](Cc2ccc(O)cc2)NC(=O)[C@@H]2CSSC[C@@H](C(=O)O)NC(=O)CNC(=O)[C@H](CC(C)C)NC(=O)[C@H](CC(N)=O)NC(=O)[C@H](CC(=O)O)NC(=O)[C@H](CC(C)C)NC(=O)[C@H]([C@@H](C)CC)NC(=O)[C@H](CCC(=O)O)NC(=O)[C@H](CCC(=O)O)NC(=O)[C@H]([C@@H](C)CC)NC(=O)[C@H](CSSC[C@H](NC(C)=O)C(=O)N[C@@H](CCC(=O)O)C(=O)N[C@@H](Cc3ccc(O)cc3)C(=O)N[C@@H](CC(=O)O)C(=O)N[C@@H](CCC(=O)O)C(=O)N[C@@H](CCC(=O)O)C(=O)N[C@@H](Cc3ccccc3)C(=O)N[C@@H](Cc3ccccc3)C(=O)N[C@@H]([C@@H](C)O)C(=O)N[C@@H](C)C(=O)N[C@@H](CC(C)C)C(=O)N[C@@H](CCCCN)C(=O)N[C@@H](CCCCN)C(=O)N[C@@H](CC(C)C)C(=O)N[C@@H](CCCNC(=N)N)C(=O)NCC(=O)NCC(=O)N[C@@H](CC(=O)O)C(=O)N[C@@H]([C@@H](C)CC)C(=O)N2)NC1=O [Compound C104]	69.6	40.6	3.7	–	–
CC[C@H](C)[C@@H]1NC(=O)[C@H](Cc2ccc(O)cc2)NC(=O)[C@H](CC(=O)O)NC(=O)[C@@H]2CSSC[C@@H](C(=O)N[C@@H](CO)C(=O)O)NC(=O)CNC(=O)[C@H](CC(C)C)NC(=O)[C@H](CC(N)=O)NC(=O)[C@H](CC(=O)O)NC(=O)[C@H](CC(C)C)NC(=O)[C@H]([C@@H](C)CC)NC(=O)[C@H](CCC(=O)O)NC(=O)[C@H](CCC(=O)O)NC(=O)[C@H]([C@@H](C)CC)NC(=O)[C@H](CSSC[C@H](NC(=O)CCOCCOCCOCCOCCNC(=O)CN3CCN(CC(=O)O)CCN(CC(=O)O)CCN(CC(=O)O)CC3)C(=O)N[C@@H](CCC(=O)O)C(=O)N[C@@H](Cc3ccc(O)cc3)C(=O)N[C@@H](CC(=O)O)C(=O)N[C@@H](CCC(=O)O)C(=O)N[C@@H](CCC(N)=O)C(=O)N[C@@H](Cc3ccccc3)C(=O)N[C@@H](Cc3ccccc3)C(=O)N[C@@H]([C@@H](C)O)C(=O)N[C@@H](C)C(=O)N[C@@H](CC(C)C)C(=O)N[C@@H](CCCCN)C(=O)N[C@@H](CCCNC(=N)N)C(=O)N[C@@H](CC(C)C)C(=O)N[C@@H](CCCNC(=N)N)C(=O)NCC(=O)N[C@@H](CC(=O)O)C(=O)N[C@@H](CC(=O)O)C(=O)N[C@@H]([C@@H](C)CC)C(=O)N2)NC(=O)[C@H](CC(C)C)NC(=O)CNC(=O)[C@@H]2CCCN2C(=O)[C@H](CC(C)C)NC(=O)[C@H](Cc2ccc(O)cc2)NC(=O)[C@H](CCC(N)=O)NC(=O)[C@H](Cc2ccccc2)NC(=O)[C@H](CO)NC(=O)[C@H](C)NC(=O)[C@H](CCC(N)=O)NC1=O [Compound C236]	65.1	42.1	–	> 720	> 720
{DOTA-PEG4}-CEYDEQFFTALARLRGGDICEYIQARFQYLPGLCIEEILDNLGCS-OH (disulfide 1-34, 20-44 (inferred)) [Compound C265]	–	–	–	> 720	> 720
{DOTA-PEG4}-CEYDEQFFTALARLRGGDICEYIQA[Arg(Me2s)]FQYLPGLCIEEILDNLGCS-OH (disulfide 1-34, 20-44 (inferred)) [Compound C268]	–	–	–	> 720	> 720
